Results from patent US6506880B2, “Synthetic peptides that enhance atherogenic lipoprotein uptake and lower plasma cholesterol” (The UAB Research Foundation, priority 1998, dated 2003).

What was measured:
[1] = test system: HepG2 cells; test: Uptake of 125I-VLDL-peptide complex by HepG2 cells; type: cell-based
[2] = test system: MEF1 cells; test: Internalization (uptake) and binding of 125I-LDL by mouse embryonic fibroblasts; type: cell-based; conditions: for Enhancement of LDL uptake (in words): mouse fibroblasts, results not shown
Protocol: The binding, internalization and degradation of LDL/VLDL in fibroblasts were measured using the method of Goldstein et. al. (20). All cells were grown in DMEM medium in 6-well plates and used at 75-90% confluence was reached. The seeding density of cells used was between 1.5×10^5 and 3.0×10^5 cells/ml medium. Cells were incubated with DMEM medium containing LPDS 24 hours prior to use to upregulate LDL receptors. […] Non-specific binding was determined in the presence of 50 fold excess unlabelled LDL/VLDL with or without peptides. After washing with ice cold PBS (containing BSA 2 mg/ml), to remove excess free labeled lipoprotein, the cells were incubated with dextran sulfate (4 mg/ml, Pharmacia, Mr 500,000) or heparin (Sigma Chemical Co., 10 mg/ml) for 1 h to release spcifically bound ^125I-LDL/^125I-VLDL, and washed with cold PBS. The counts in the dextran sulfate wash reflect the amount of LDL/VLDL bound to cells.
The cells were dissolved in 0.1 N NaOH and a 0.5 ml aliquot of cell suspension was counted. These counts reflect the amount of LDL/VLDL internalized. Protein was estimated by the method of Lowry. Degradation of LDL/VLDL were studied using the protocol described above for 4° C., except that the cells were incubated at 37° C. for 5 hours. Degradation was determined by precipitating the unbound ^125I-LDL/^125I-VLDL from the medium with 50% TCA (0.5 ml of 50% TCA was added to 1 ml of medium) and incubating at 4° C. for 30 minutes (20). The precipitate was removed by centrifugation. The supernatant was treated with 10 μl of 40% potassium iodide and 40 μl of 30% hydrogen peroxide. The free ^125I liberated was extracted with 2 ml of chloroform. The upper aqueous layer (0.5 ml) was then counted. This represented the amount of ^125I-monoiodotyrosine produced by the degradation of apoB in LDL/VLDL.
(§1) Heparinase and heparitinase treatment of cells was carried out as follows. The cells were treated with heparinase and heparitinase (Sigma Chemical Co.) at a concentration of 3 U/ml of media for 2 hours at 37° C. These experiments were carried out using human and mouse fibroblasts as well as HepG2 cells. Mouse embryonic fibroblasts (MEF1), the LRP deficient mutant (PEA13) and the LRP/LDL double mutant (MEF4) were (obtained from ATCC ) used to identify the possible mechanism involved. In all the cell experiments, the average value of triplicates was used.
The effect of the peptide was studied in two ways: (a) the peptide was added to the cell media directly after adding LDL and (b) it was first incubated with LDL for 1 h at room temperature and the coincubated mixture was added to the cells after filtering through a 0.221μ filter. The peptide-LDL “complex” or modified LDL appears to enhance the uptake of ^125I-LDL much more than the peptide by itself (results not shown). […]

[3] = test system: HepG2 cells; test: Degradation of 125I-VLDL-peptide complex by HepG2 cells; type: cell-based
Protocol: […] was used as a control. ^125I-VLDL was incubated with Ac-hE18A-NH2 (1:1 w/w) and reisolated by density centrifugation. The peptide bound to ^125I-VLDL floated to the top while the unbound peptide was at the bottom. The ^125I-VLDL-peptide complex was used to determine the effect of the peptide on the uptake and degradation of ^125I-VLDL. The first bar: ^125I-VLDL alone; the second bar: ^125VLDL-Ac-18A-NH2 (1:1 w/w); the third bar: VLDL-Ac-hE18A-NH2 (1:1 w/w). The data represent an average of triplicate values.
The binding, internalization and degradation of LDL/VLDL in fibroblasts were measured using the method of Goldstein et. al. (20). All cells were grown in DMEM medium in 6-well plates and used at 75-90% confluence was reached. The seeding density of cells used was between 1.5×10^5 and 3.0×10^5 cells/ml medium. Cells were incubated with DMEM medium containing LPDS 24 hours prior to use to upregulate LDL receptors. […] Non-specific binding was determined in the presence of 50 fold excess unlabelled LDL/VLDL with or without peptides. […]
The cells were dissolved in 0.1 N NaOH and a 0.5 ml aliquot of cell suspension was counted. […] Degradation was determined by precipitating the unbound ^125I-LDL/^125I-VLDL from the medium with 50% TCA (0.5 ml of 50% TCA was added to 1 ml of medium) and incubating at 4° C. for 30 minutes (20). […] The upper aqueous layer (0.5 ml) was then counted. […]

[4] = test system: MEF1 cells; test: Effect of heparinase/heparitinase treatment of cells on peptide-mediated LDL internalization; type: cell-based, mouse; conditions: heparinase and heparitinase 0.5 units each/ml
Protocol: MEF1 cells were pretreated with heparinase/heparitinase(3U/ml) for 2 hours at 37° C. and then incubated with ^1251I-LDL-peptide for 2 hours at 37° C. The black bars represent internalization without heparinase/heparitinase treatment while the speckled bars represent internalization after pretreatment with heparinase/heparitinase.
as §1
A possible high capacity, low affinity pathway has been previously identified for lipoprotein binding and uptake. Heparan sulfate proteoglycans (HSPG) bind and take up apo E-enriched lipoproteins (27). […] These apo E mimicking peptides could modify LDL and be taken up through heparan sulfate proteoglycans. Therefore, the cells were treated with heparinase and heparitinase (0.5 units each/ml).

[5] = Circular dichroic spectrometry, percent helicity of peptides; type: physicochemical; conditions: for Percent Helicity, Peptide: peptide alone, 100 μM in PBS, pH 7.4, 25° C.; for Percent Helicity, Peptide/DMPC (1:20): peptide-DMPC complex 1:20 m/m
Protocol: Circular dichroic spectra were recorded on a signal averaging AVIV 62DS spectropolarimeter as described earlier (18). Briefly, circular dichroic spectra were obtained at 25° C. by signal averaging of four scans recorded every nm from 260 nm to 190 nm using a cell with a 0.01 cm path length Peptide concentrations in PBS, pH 7.4, used were 100 μM. Peptide-DMPC complexes (1:20 m/m) were prepared as described (18) and the change in peptide helicity upon lipid association measured. The helical content of the peptides was estimated from the mean residue ellipticity, [θ]MRE (deg.cm^2.dmol^−1) at 222 nm using the equations as detailed by Morrisett et al.(23).

[6] = test system: apo E-gene knock out mice; test: Intravenous administration of peptide, plasma cholesterol (CLiP); type: in vivo, mouse
Protocol: Female apo E knockout mice were injected through the tail vein with ^125I-Ac-hE18A-NH2 (50 μg in 100 μl PBS). Blood samples were taken by retro-orbital bleeding at baseline (0 h) and at 2 minutes and 6 hours following injection. Success of injection was determined by measuring radioactivity in the 2 minutes sample and calculating total plasma peptide by specific radioactivity of the peptide, assuming total plasma volume=4.2% of body weight.
50 μg of the ^125I-labeled peptide was injected into the tail vein into female apo E-gene knock out mice. Blood was drawn by retro-orbital bleeding immediately before injection (time 0), and at two minutes and 6 hours following the injection. Success of injections was determined by measuring the plasma radioactivity in the two minute sample; the total plasma peptide at two minutes was determined from the specific activity of the injected peptide and the radioactivity present in the plasma. Total plasma volume was assumed to be 4.2% of body weight. Plasma cholesterol profiles were determined on 5 μl of 0 h and 6 h samples by the CLiP method.
CLiP were determined using a modification of a previously described method for the semi-automated cholesterol profiling of lipoproteins by column chromatography (31). The apparatus consisted of two biocompatible HPLC pumps, an injector Pharmacia), a post-column reactor, a 30×1 cm Superose 6 column, and a spectrophotometric detector reading at 500 nm. Plasma samples were injected onto the Superose 6 column. Immediately after the column, cholesterol reagent (Cholesterol 1000, Pharmacia) was mixed with the column eluent through a low-dead-volume mixing tee, and the mixture entered a heating block (set at […]). Outflow from the heating block entered the spectrophotometric detector, and the cholesterol profile was collected through an A/D board and the digitized profile stored in a computer.
To determine the effect of peptide Ac-hE18A-NH2 in clearing the plasma cholesterol, 14 μg to 33 μg of the peptide were administered into six apo E(-/-) animals. In every case, the plasma cholesterol levels decreased. […]

[7] = apo E(-/-) mice, intravenous, 6 hours

Ac-18A-NH2: control peptide, end protected class A amphipathic helical peptide 18A [reference compound]
Uptake of VLDL by HepG2 cells (in words) ([1]; VLDL-peptide 1:1 w/w): does not increase uptake of VLDL | Enhancement of LDL uptake (in words) [2]: did not enhance LDL uptake

Ac-hE18A-NH2: end protected analog of hE18A (acetyl and amino groups) (Ac-LRKLRKRLLRDWLKAFYDKVAEKLKEAF-NH2)
Enhancement of uptake of VLDL compared to VLDL alone ([1]; peptide-associated VLDL): six | Enhancement of degradation of VLDL by HepG2 cells ([3]; VLDL-peptide 1:1 w/w, versus control): three | Enhancement of degradation of VLDL compared to VLDL alone ([3]; peptide-associated VLDL): three | Reduction of uptake of peptide treated LDL by heparinase/heparitinase [4]: ~50% | Percent Helicity, Peptide [5]: 69.3% | Percent Helicity, Peptide/DMPC (1:20) [5]: 74.3% | Reduction of total cholesterol ([6]; FIG. 10B, plasma cholesterol profile at 6 hours vs baseline, single animal): > 50% | HDL cholesterol [6, 7]: unchanged | VLDL and LDL cholesterol levels [6, 7]: lowered | Effectiveness in LDL internalization of protected peptide relative to free peptide ([2]; 10 μg peptide, LDL 10 μg, versus corresponding unprotected peptide): 5 times | Enhancement of LDL internalization ([2]; MEF1 cells with induced LDL receptors, 125I-LDL 10 μg + peptide 10 μg, 2 hours at 37° C.): five

LRKLRKRLLR [reference compound]
Enhancement of LDL uptake (in words) [2]: did not enhance LDL uptake

LRKLRKRLLR-18A (LRKLRKRLLRDWLKAFYDKVAEKLKEAF) [hE-18A, 141-150 region of human apo E linked to class A amphipathic helical peptide 18A]
Percent Helicity, Peptide [5]: 36.0% | Percent Helicity, Peptide ([5]; listed as hE18A): 36% | Percent Helicity, Peptide/DMPC (1:20) [5]: 46.0%

LRKMRKRLMR-18A (DOMAIN 133..142 mouse apolipoprotein E receptor binding domain; listed as Mus sp.) [mE-18A]
Percent Helicity, Peptide [5]: 36.3% | Percent Helicity, Peptide ([5]; listed as mE18A): 36% | Percent Helicity, Peptide/DMPC (1:20) [5]: 44.0%

LRRLRRRLLR-18A (an analog of human apolipoprotein E receptor binding domain) [hE-(R)18A, analog of hE-18A with Lys replaced by Arg]
Percent Helicity, Peptide [5]: 51.2% | Percent Helicity, Peptide ([5]; listed as hE(R)18A): ~50% | Percent Helicity, Peptide/DMPC (1:20) [5]: 70.8%
